Measurements published in the supplement of paper PMC9663587.

What was measured:
Assay in all cases: GRmax, 72 h; higher = less effect;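 further: breast cell lines in 384-well plates, nine doses across a 10^4 range, Dye Drop imaging of viable cells vs DMSO and time-zero plates, GR 0 means no net growth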
EFM19 = system: EFM19
CAMA1 = system: CAMA1
HTERT_HME1 = system: HTERT_HME1
SUM229PE = system: SUM229PE
MDAMB361 = system: MDAMB361
T47D = system: T47D
CAL51 = system: CAL51
PDX1328 = system: PDX1328
SUM1315 = system: SUM1315
HCC202 = system: HCC202
MDAMB231 = system: MDAMB231

SMILES	GRmax, 72 h (EFM19) [GR]	GRmax, 72 h (CAMA1) [GR]	GRmax, 72 h (HTERT_HME1) [GR]	GRmax, 72 h (SUM229PE) [GR]	GRmax, 72 h (MDAMB361) [GR]	GRmax, 72 h (T47D) [GR]	GRmax, 72 h (CAL51) [GR]	GRmax, 72 h (PDX1328) [GR]	GRmax, 72 h (SUM1315) [GR]	GRmax, 72 h (HCC202) [GR]	GRmax, 72 h (MDAMB231) [GR]	GRmax, 72 h (CAMA1; main component drawn) [GR]	GRmax, 72 h (HTERT_HME1; main component drawn) [GR]	GRmax, 72 h (MDAMB361; main component drawn) [GR]	GRmax, 72 h (T47D; main component drawn) [GR]	GRmax, 72 h (CAL51; main component drawn) [GR]	GRmax, 72 h (PDX1328; main component drawn) [GR]	GRmax, 72 h (SUM1315; main component drawn) [GR]	GRmax, 72 h (MDAMB231; main component drawn) [GR]
CNc1nc(-c2ccc3c(N)n[nH]c3c2)cc(N2C[C@@H](C(=O)NC3CCCCC3)CC[C@H]2C)n1 (max 10 µM)	0.292	0.716	0.641	0.696	-0.417	0.164	0.794	0.545	0.421	0.155	0.662	–	–	–	–	–	–	–	–
CCOc1cc2ncc(C#N)c(Nc3ccc(OCc4ccccn4)c(Cl)c3)c2cc1NC(=O)/C=C/CN(C)C [Neratinib/HKI272] (max 3.162 µM)	0.718	0.449	0.0983	0.205	-0.528	0.195	0.28	-0.0735	0.114	0.0762	-0.0957	–	–	–	–	–	–	–	–
Cc1cc(C(C)Nc2ccccc2)c2nc(N3CCOCC3)cc(=O)n2c1 (stereo not drawn) [TGX221] (max 10 µM)	0.843	0.85	1.03	0.994	0.799	0.799	0.91	0.778	0.705	0.782	0.851	–	–	–	–	–	–	–	–
CN(C)C/C=C/C(=O)Nc1ccc(C(=O)Nc2cccc(Nc3cc(-c4c[nH]c5ccccc45)ncn3)c2)cc1 [THZ-P1-2] (max 10 µM)	0.124	-0.626	0.566	-0.655	0.142	-0.453	0.751	0.656	-0.299	-0.2	-0.691	–	–	–	–	–	–	–	–
Cc1c(N)nc([C@H](CC(N)=O)NC[C@H](N)C(N)=O)nc1C(=O)N[C@H](C(=O)N[C@H](C)[C@@H](O)[C@H](C)C(=O)N[C@H](C(=O)NCCc1nc(-c2nc(C(=O)NCCC[S+](C)C)cs2)cs1)[C@@H](C)O)[C@@H](OC1OC(CO)C(O)C(O)C1OC1OC(CO)C(O)C(OC(N)=O)C1O)c1cnc[nH]1 (stereo partly drawn) [Bleomycin] (max 10 µM)	–	–	–	–	–	–	–	–	–	–	–	-0.0365	-0.111	-0.266	-0.084	-0.134	0.306	0.149	0.436
NC1(C(=O)N[C@@H](CCO)c2ccc(Cl)cc2)CCN(c2nc[nH]c3nccc2-3)CC1 [AZD5363] (max 10 µM)	0.23	-0.124	0.564	0.516	-0.38	0.179	0.565	0.766	0.694	0.572	1.05	–	–	–	–	–	–	–	–
COc1cc2nccc(Oc3ccc(NC(=O)C4(C(=O)Nc5ccc(F)cc5)CC4)cc3)c2cc1OC [Cabozantinib] (max 10 µM)	0.668	0.244	-0.105	0.199	0.662	0.313	0.306	0.251	0.11	0.731	0.0749	–	–	–	–	–	–	–	–
CN1CCN(CCOc2cc(OC3CCOCC3)c3c(Nc4c(Cl)ccc5c4OCO5)ncnc3c2)CC1 [Saracatinib/AZD0530] (max 10 µM)	0.139	0.774	0.46	0.236	-0.178	0.389	0.258	-0.108	0.0846	-0.22	0.28	–	–	–	–	–	–	–	–
CN(C)C/C=C/C(=O)Nc1ccc(C(=O)N2CCC[C@@H](Nc3ncc(Cl)c(-c4c[nH]c5ccccc45)n3)C2)cc1 [THZ531] (max 1 µM)	-0.557	-0.398	-0.217	-0.146	-0.743	-0.141	0.559	-0.184	-0.602	0.0684	-0.276	–	–	–	–	–	–	–	–
O=C(CCCCCCC(=O)Nc1ccccc1)NO [Vorinostat] (max 10 µM)	-0.248	-0.49	0.0551	-0.0664	-0.939	-0.157	-0.0506	-0.285	-0.0668	0.104	-0.385	–	–	–	–	–	–	–	–
CO[C@H]1C[C@@H]2CC[C@@H](C)[C@@](O)(O2)C(=O)C(=O)N2CCCC[C@H]2C(=O)O[C@H]([C@H](C)C[C@@H]2CC[C@@H](OCCO)[C@H](OC)C2)CC(=O)[C@H](C)/C=C(\C)[C@@H](O)[C@@H](OC)C(=O)[C@H](C)C[C@H](C)/C=C/C=C/C=C/1C [Everolimus] (max 10 µM)	0.249	0.164	0.489	0.686	0.0574	0.297	0.548	0.371	0.402	0.474	0.711	–	–	–	–	–	–	–	–
CN(C)C(=O)c1cc2cnc(Nc3ccc(N4CCNCC4)cn3)nc2n1C1CCCC1 [LEE011/Ribociclib] (max 10 µM)	0.386	0.122	0.292	0.576	0.0436	0.15	0.385	0.265	0.444	0.778	0.204	–	–	–	–	–	–	–	–
CCNC(=O)c1noc(-c2cc(C(C)C)c(O)cc2O)c1-c1ccc(CN2CCOCC2)cc1 [Luminespib/NVP-AUY922] (max 1 µM)	0.0263	-0.0698	-0.335	-0.293	-0.885	0.0212	-0.339	-0.253	-0.081	0.115	-0.178	–	–	–	–	–	–	–	–
COc1ccc2c(c1)[C@]1(C[C@H]1c1ccc3c(/C=C/c4ccc(CN5C[C@@H](C)O[C@@H](C)C5)cc4)n[nH]c3c1)C(=O)N2	0.146	-0.0117	-0.106	-0.0183	0.272	-0.0071	0.0084	-0.0338	-0.232	0.493	0.0653	–	–	–	–	–	–	–	–
CCc1cncnc1N1CCN(Cc2nc3ccc(C(F)(F)F)cc3[nH]2)CC1 (max 10 µM)	0.921	0.655	0.455	0.743	0.192	0.366	0.734	0.619	0.595	0.673	0.854	–	–	–	–	–	–	–	–
CC(C)Nc1cc(-c2c[nH]c(C(=O)N[C@H](CO)c3cccc(Cl)c3)c2)c(Cl)cn1 [BVD523] (max 10 µM)	0.798	0.156	0.001	0.265	0.27	0.217	0.759	0.752	0.207	0.57	0.213	–	–	–	–	–	–	–	–
CC(=O)Nc1cccc(-n2c(=O)n(C3CC3)c(=O)c3c(Nc4ccc(I)cc4F)n(C)c(=O)c(C)c32)c1 (max 1 µM)	0.952	0.553	0.203	0.172	0.502	0.58	0.706	0.661	0.133	0.526	-0.178	–	–	–	–	–	–	–	–
CC(=O)c1c(C)c2cnc(Nc3ccc(N4CCNCC4)cn3)nc2n(C2CCCC2)c1=O (max 3.162 µM)	0.308	0.282	0.257	0.4	0.148	0.117	0.361	0.361	0.3	0.691	0.206	–	–	–	–	–	–	–	–
COc1cccc2c1C(=O)c1c(O)c3c(c(O)c1C2=O)C[C@@](O)(C(=O)CO)C[C@@H]3O[C@H]1C[C@H](N)[C@H](O)[C@H](C)O1 [Doxorubicin] (max 3.162 µM)	-0.18	-0.652	-0.399	-0.125	-0.722	-0.361	-0.48	-0.739	-0.0635	0.245	-0.486	–	–	–	–	–	–	–	–
COc1cc([C@@H]2c3cc4c(cc3[C@@H](O[C@@H]3O[C@@H]5CO[C@@H](C)O[C@H]5[C@H](O)[C@H]3O)[C@H]3COC(=O)[C@H]23)OCO4)cc(OC)c1O [Etoposide] (max 10 µM)	–	-0.448	-0.384	–	-0.517	-0.186	-0.21	-0.281	0.0416	–	0.12	–	–	–	–	–	–	–	–
CCC(=O)Nc1ccc(C(=O)Nc2ccc(Nc3ncc4c(n3)N(C)c3ccc(C)cc3C(=O)N4C)cc2)cc1 [FMF-03-145-1]	0.175	0.0253	-0.0813	-0.209	0.286	-0.0373	0.0325	0.128	-0.274	0.23	-0.0038	–	–	–	–	–	–	–	–
C=CCn1c(=O)c2cnc(Nc3ccc(N4CCN(C)CC4)cc3)nc2n1-c1cccc(C(C)(C)O)n1 [AZD1775] (max 10 µM)	-0.425	-0.206	-0.17	-0.259	-0.348	0.162	-0.188	-0.32	-0.747	-0.148	-0.282	–	–	–	–	–	–	–	–
CC(=O)O[C@H]1C(=O)[C@@]2(C)[C@H]([C@H](OC(=O)c3ccccc3)[C@]3(O)C[C@H](OC(=O)[C@H](O)[C@@H](NC(=O)c4ccccc4)c4ccccc4)C(C)=C1C3(C)C)[C@]1(OC(C)=O)CO[C@@H]1C[C@@H]2O [Paclitaxel] (max 1 µM)	-0.639	-0.494	-0.224	-0.377	-0.609	-0.134	-0.22	-0.403	-0.326	0.0855	-0.12	–	–	–	–	–	–	–	–
CC[C@@]1(O)C(=O)OCc2c1cc1n(c2=O)Cc2cc3c(CN(C)C)c(O)ccc3nc2-1 [Topotecan] (max 10 µM)	–	-0.423	-0.34	–	-0.762	-0.197	-0.53	-0.913	-0.332	–	-0.324	–	–	–	–	–	–	–	–
N.N.[Cl][Pt][Cl] [Cisplatin] (max 10 µM)	–	-0.0042	-0.218	–	-0.35	0.102	-0.0329	-0.422	0.203	–	0.272	–	–	–	–	–	–	–	–
